Source: publication PMC11079024, “Identification of a family of species-selective complex I inhibitors as potential anthelmintics” (Nature Communications, 2024)

Tested on: anthelmintic/nematicide-resistant C. elegans mutant strains
Test: microbe, parasite or virus in culture
Excerpt: In addition to the Caenorhabditis elegans wild-type N2 strain, this work included the following C. elegans strains: CB1003 (kynu-1(e1003) X); anthelmintic-resistant strains—CB3474 (ben-1(e1880) III), CB193 (unc-29(e193) I), HY496 (bre-1(ye4) IV), RB2119 (acr-23(ok2804) V), JD608 (avr-14(ad1302) I; avr-15(ad1051) V; glc-1 (pk54) V), NM1968 (slo-1(js379) V), RP2635 (mev-1(tr355) III); benzimidazole-resistant CRISPR strains—ECA882 (ben-1(ean64) III), ECA917 (ben-1(ean98) III), ECA1075 (ben-1(ean143) III), ECA1080 (ben-1(ean148) III). This work also featured several additional free-living nematode strains: C. briggsae strain AF16, P. pacificus strain PS312, and P. hermaphrodita strain B178. The four CRISPR-generated benzimidazole-resistant C. elegans mutants were generously provided by Prof. Erik Andersen (Johns Hopkins University); PS312 and B178 were generously provided by Prof. Peter Roy (University of Toronto); all other strains were obtained from the Caenorhabditis Genetics Center (CGC, University of Minnesota). All strains were cultured and propagated at 20 °C on NGM (nematode growth medium) agar plates seeded with E. coli OP50 (Stiernagle, 2006)[56].
Liquid development and viability assays were adapted from a previously established chemical screening protocol (Burns et al.)[24]. In brief, a saturated culture of E. coli HB101 was concentrated 2-fold in liquid NGM and 40 μL of this suspension was distributed to each well of a 96-well flat-bottom culture plate. 0.5 μL chemical solution (or DMSO alone) was added to each well (1% DMSO v/v) using either a multi-channel pipette or a pinning tool (V&P Scientific). L1 worms synchronized from an embryo preparation performed the day prior were diluted to a concentration of ~2 worms/μL in M9 buffer; 10 μL worm suspension was then added to each well. Culture plates were sealed with parafilm and placed in a plastic container lined with wet paper towels to prevent evaporation. Containers were then incubated for 6 days at 20 °C with shaking at 165 rpm. Following incubation, 300 μL M9 was added to each well to decrease the turbidity of the HB101-NGM suspension. Single images of each microplate well were then taken on a Nikon Ti Eclipse inverted microscope (Nikon NIS Elements AR). Images were processed using Python scripts to isolate worm-associated pixels from background. Scores of worm development and viability were determined as the sum of worm-associated pixels in each well. Development/viability scores for each well were divided by the development /viability scores for the corresponding DMSO controls, resulting in a relative viability value for each chemical. At least three biological replicates were performed for each dose-response experiment; relative viability values were averaged across replicates.
Supplementary Table 2. Sensitivity of anthelmintic/nematicide-resistant strains to Class A, B, and C
benzimidazole complex I inhibitors.
LC50s were estimated from fitted dose-
response curves; all dose response data are the mean of at least three biological replicates.
Supplementary Table 2. Davie et al.

COC(=O)Nc1nc2ccc(Sc3ccccc3)cc2[nH]1 [fenbendazole, reference compound]
C. elegans L1 relative development & viability (score 0-1 relative to DMSO controls) (1 µM, strain CB3474, G104D (ben-1)): 1.000
C. elegans L1 relative development & viability (score 0-1 relative to DMSO controls) (1 µM, strain ECA917, F200Y (ben-1)): 1.000
C. elegans L1 relative development & viability (score 0-1 relative to DMSO controls) (1 µM, strain ECA1075, F167Y (ben-1)): 1.000
C. elegans L1 relative development & viability (score 0-1 relative to DMSO controls) (1 µM, strain ECA1080, E198A (ben-1)): 1.000
C. elegans L1 relative development & viability (score 0-1 relative to DMSO controls) (2 µM, strain CB3474, G104D (ben-1)): 1.000
C. elegans L1 relative development & viability (score 0-1 relative to DMSO controls) (2 µM, strain ECA917, F200Y (ben-1)): 1.000
C. elegans L1 relative development & viability (score 0-1 relative to DMSO controls) (2 µM, strain ECA1075, F167Y (ben-1)): 1.000
C. elegans L1 relative development & viability (score 0-1 relative to DMSO controls) (2 µM, strain ECA1080, E198A (ben-1)): 1.000
C. elegans L1 relative development & viability (score 0-1 relative to DMSO controls) (3.9 µM, strain CB3474, G104D (ben-1)): 1.000
C. elegans L1 relative development & viability (score 0-1 relative to DMSO controls) (3.9 µM, strain ECA917, F200Y (ben-1)): 1.000
C. elegans L1 relative development & viability (score 0-1 relative to DMSO controls) (3.9 µM, strain ECA1075, F167Y (ben-1)): 1.000
C. elegans L1 relative development & viability (score 0-1 relative to DMSO controls) (3.9 µM, strain ECA1080, E198A (ben-1)): 1.000
C. elegans L1 relative development & viability (score 0-1 relative to DMSO controls) (15.6 µM, strain CB3474, G104D (ben-1)): 1.000
C. elegans L1 relative development & viability (score 0-1 relative to DMSO controls) (15.6 µM, strain ECA917, F200Y (ben-1)): 1.000
C. elegans L1 relative development & viability (score 0-1 relative to DMSO controls) (15.6 µM, strain ECA1075, F167Y (ben-1)): 1.000
C. elegans L1 relative development & viability (score 0-1 relative to DMSO controls) (15.6 µM, strain ECA1080, E198A (ben-1)): 0.957
C. elegans L1 relative development & viability (score 0-1 relative to DMSO controls) (31.3 µM, strain CB3474, G104D (ben-1)): 1.000
C. elegans L1 relative development & viability (score 0-1 relative to DMSO controls) (31.3 µM, strain ECA917, F200Y (ben-1)): 1.000
C. elegans L1 relative development & viability (score 0-1 relative to DMSO controls) (31.3 µM, strain ECA1075, F167Y (ben-1)): 1.000
C. elegans L1 relative development & viability (score 0-1 relative to DMSO controls) (31.3 µM, strain ECA1080, E198A (ben-1)): 1.000
C. elegans L1 relative development & viability (score 0-1 relative to DMSO controls) (62.5 µM, strain CB3474, G104D (ben-1)): 0.845
C. elegans L1 relative development & viability (score 0-1 relative to DMSO controls) (62.5 µM, strain ECA917, F200Y (ben-1)): 1.000
C. elegans L1 relative development & viability (score 0-1 relative to DMSO controls) (62.5 µM, strain ECA1075, F167Y (ben-1)): 0.934
C. elegans L1 relative development & viability (score 0-1 relative to DMSO controls) (62.5 µM, strain ECA1080, E198A (ben-1)): 1.000
C. elegans L1 relative development & viability (score 0-1 relative to DMSO controls) (125 µM, strain CB3474, G104D (ben-1)): 0.790
C. elegans L1 relative development & viability (score 0-1 relative to DMSO controls) (125 µM, strain ECA917, F200Y (ben-1)): 0.784
C. elegans L1 relative development & viability (score 0-1 relative to DMSO controls) (125 µM, strain ECA1075, F167Y (ben-1)): 0.665
C. elegans L1 relative development & viability (score 0-1 relative to DMSO controls) (125 µM, strain ECA1080, E198A (ben-1)): 0.759
C. elegans L1 relative development & viability (score 0-1 relative to DMSO controls) (250 µM, strain CB3474, G104D (ben-1)): 0.720
C. elegans L1 relative development & viability (score 0-1 relative to DMSO controls) (250 µM, strain ECA917, F200Y (ben-1)): 0.835
C. elegans L1 relative development & viability (score 0-1 relative to DMSO controls) (250 µM, strain ECA1075, F167Y (ben-1)): 0.796
C. elegans L1 relative development & viability (score 0-1 relative to DMSO controls) (250 µM, strain ECA1080, E198A (ben-1)): 0.686
C. elegans L1 relative development & viability (score 0-1 relative to DMSO controls) (500 µM, strain CB3474, G104D (ben-1)): 0.538
C. elegans L1 relative development & viability (score 0-1 relative to DMSO controls) (500 µM, strain ECA917, F200Y (ben-1)): 0.716
C. elegans L1 relative development & viability (score 0-1 relative to DMSO controls) (500 µM, strain ECA1075, F167Y (ben-1)): 0.599
C. elegans L1 relative development & viability (score 0-1 relative to DMSO controls) (500 µM, strain ECA1080, E198A (ben-1)): 0.597
C. elegans L1 relative development & viability (CB3474 G104D (ben-1), 1 µM, score 0-1 relative to DMSO, values >1 set to 1): 1.000
C. elegans L1 relative development & viability (CB3474 G104D (ben-1), 2 µM, score 0-1 relative to DMSO, values >1 set to 1): 1.000
C. elegans L1 relative development & viability (CB3474 G104D (ben-1), 3.9 µM, score 0-1 relative to DMSO, values >1 set to 1): 1.000
C. elegans L1 relative development & viability (CB3474 G104D (ben-1), 15.6 µM, score 0-1 relative to DMSO, values >1 set to 1): 1.000
C. elegans L1 relative development & viability (CB3474 G104D (ben-1), 31.3 µM, score 0-1 relative to DMSO, values >1 set to 1): 1.000
C. elegans L1 relative development & viability (CB3474 G104D (ben-1), 62.5 µM, […]): 0.845
C. elegans L1 relative development & viability (CB3474 G104D (ben-1), 125 µM, […]): 0.790
C. elegans L1 relative development & viability (CB3474 G104D (ben-1), 250 µM, […]): 0.720
C. elegans L1 relative development & viability (CB3474 G104D (ben-1), 500 µM, […]): 0.538
C. elegans L1 relative development & viability (ECA917 F200Y (ben-1), 1 µM, score 0-1 relative to DMSO, values >1 set to 1): 1.000
C. elegans L1 relative development & viability (ECA917 F200Y (ben-1), 2 µM, score 0-1 relative to DMSO, values >1 set to 1): 1.000
C. elegans L1 relative development & viability (ECA917 F200Y (ben-1), 3.9 µM, score 0-1 relative to DMSO, values >1 set to 1): 1.000
C. elegans L1 relative development & viability (ECA917 F200Y (ben-1), 15.6 µM, score 0-1 relative to DMSO, values >1 set to 1): 1.000
C. elegans L1 relative development & viability (ECA917 F200Y (ben-1), 31.3 µM, score 0-1 relative to DMSO, values >1 set to 1): 1.000
C. elegans L1 relative development & viability (ECA917 F200Y (ben-1), 62.5 µM, score 0-1 relative to DMSO, values >1 set to 1): 1.000
C. elegans L1 relative development & viability (ECA917 F200Y (ben-1), 125 µM, […]): 0.784
C. elegans L1 relative development & viability (ECA917 F200Y (ben-1), 250 µM, […]): 0.835
C. elegans L1 relative development & viability (ECA917 F200Y (ben-1), 500 µM, […]): 0.716
C. elegans L1 relative development & viability (ECA1075 F167Y (ben-1), 1 µM, score 0-1 relative to DMSO, values >1 set to 1): 1.000
C. elegans L1 relative development & viability (ECA1075 F167Y (ben-1), 2 µM, score 0-1 relative to DMSO, values >1 set to 1): 1.000
C. elegans L1 relative development & viability (ECA1075 F167Y (ben-1), 3.9 µM, score 0-1 relative to DMSO, values >1 set to 1): 1.000
C. elegans L1 relative development & viability (ECA1075 F167Y (ben-1), 15.6 µM, score 0-1 relative to DMSO, values >1 set to 1): 1.000
C. elegans L1 relative development & viability (ECA1075 F167Y (ben-1), 31.3 µM, score 0-1 relative to DMSO, values >1 set to 1): 1.000
C. elegans L1 relative development & viability (ECA1075 F167Y (ben-1), 62.5 µM, […]): 0.934
C. elegans L1 relative development & viability (ECA1075 F167Y (ben-1), 125 µM, […]): 0.665
C. elegans L1 relative development & viability (ECA1075 F167Y (ben-1), 250 µM, […]): 0.796
C. elegans L1 relative development & viability (ECA1075 F167Y (ben-1), 500 µM, […]): 0.599
C. elegans L1 relative development & viability (ECA1080 E198A (ben-1), 1 µM, score 0-1 relative to DMSO, values >1 set to 1): 1.000
C. elegans L1 relative development & viability (ECA1080 E198A (ben-1), 2 µM, score 0-1 relative to DMSO, values >1 set to 1): 1.000
C. elegans L1 relative development & viability (ECA1080 E198A (ben-1), 3.9 µM, score 0-1 relative to DMSO, values >1 set to 1): 1.000
C. elegans L1 relative development & viability (ECA1080 E198A (ben-1), 15.6 µM, […]): 0.957
C. elegans L1 relative development & viability (ECA1080 E198A (ben-1), 31.3 µM, score 0-1 relative to DMSO, values >1 set to 1): 1.000
C. elegans L1 relative development & viability (ECA1080 E198A (ben-1), 62.5 µM, score 0-1 relative to DMSO, values >1 set to 1): 1.000
C. elegans L1 relative development & viability (ECA1080 E198A (ben-1), 125 µM, […]): 0.759
C. elegans L1 relative development & viability (ECA1080 E198A (ben-1), 250 µM, […]): 0.686
C. elegans L1 relative development & viability (ECA1080 E198A (ben-1), 500 µM, […]): 0.597
